Measurements from patent publication US10780076B2, “Inhibition of cancer cell motility” (Northwestern University, priority 2014, dated 2020).
Each block holds one compound with its values, some of them ahead of it.

How the values were obtained:
PC3-M cells [1] = assay: Single cell motility assay with KBU2046-biotin; assay type: cell-based, human; details: 10 μM, three days
Protocol: PC3-M cells were pre-treated with 10 μM KBU2046 or with KBU2046-biotin for three days, and single cell motility assays conducted.
FIGS. 23A-C. […] PC3-M cells were pre-treated with 10 μM KBU2046 or with KBU2046-biotin for three days, and single cell motility assays conducted.

[2] = tested on: array of over 9,000 human proteins; assay: ProtoArray Human Protein Microarray hybridization; assay type: binding
Protocol: FIGS. 19A-D. KBU2046 binds to intact cells, but not to isolated proteins. (A) Chemical structure of KBU2046 linked to biotin (KBU2046-biotin). […] PC3-M cells were pre-treated with 10 μM KBU2046 or with KBU2046-biotin for three days, and single cell motility assays conducted. Data are the mean±SEM. […] PC3-M cells were labeled with […]+/−10 μM free KBU2046, followed by detection with FITC-streptavidin, and visualization by fluorescent microscopy (with equal exposure times). (D) Protein array hybridization. KBU2046-biotin was hybridized to ProtoArray® Human Protein Microarray's at 0.5 and 10 μM with and without 10-fold excess free KBU2046. Proteins were first sought that met the following criteria, and did so at both 0.5 and 10 μM concentrations of KBU2046-biotin (in the absence of free KBU2046): Z-Score greater than 2.5, Z-Factor greater than 0.5, CI P-value less than 0.05, negative control value <2,000 (relative fluorescence units; RFUs), and a signal/negative control signal of >10 and >5 for 10 μM and 0.5 μM conditions, respectively. This yielded 3 proteins, shown in table, for an initial hit rate of 0.03%. It was then required that free KBU2046 inhibit binding by >75% of the two remaining candidates, eliminating isovaleryl-CoA dehydrogenase (ICD). […] The positive control used in protein arrays was staurosporine. Staurosporine is similar to genistein in that both are small compound natural products that are broad spectrum kinase inhibitors. […] The vast majority of these proteins were kinases. Both HSP90β and CDC37 were present on the protein arrays, and were not bound by KBU2046-biotin.

PC3-M cells [3] = assay: Cell labeling with FITC-streptavidin detection; assay type: cell-based, human; details: +/−10 μM free KBU2046
[4] = tested on: protein phosphorylation (kinome) in PC3-M and PC3 cells; assay: KinomeView phospho-motif antibody screen; assay type: cell-based, human; details: 10 μM, 3 days, ±TGFβ
Protocol: FIG. 14A-D. Proteomic analysis of the effects of KBU2046 on the kinome. Screening for effects on the kinome. PC3-M cells were pre-treated with 10 μM KBU2046, genistein or vehicle control for 3 days, then with ±TGFB, as indicated. Resultant cell lysate, as well as lysate from tumors from mice treated with 150 mg/kg KBU2046 or control mice (from manuscript FIG. 3A), were then probed with the KinomeView® panel of antibodies by Western blot. In instances where KBU2046 was inhibiting protein phosphorylation in cells and in tumors, a repeat experiment of PC3-M cells was conducted. In addition to including PC3-M cells, experiments were expanded to examine effects on PC3 cells. […] (C,D) All other Western blots of phospho-motif antibodies that were evaluated on initial screen. NI=tumor not informative; this denotes a tumor sample that yielded an abnormal coomassie blue staining pattern.
Screening for changes in the kinome induced by KBU2046 were evaluated with the Kinoview™ assay system. […]
The KinomeView® panel of antibodies (Cell Signaling Technology, Inc.) detects established protein phosphorylation motifs, and were was to probe for KBU2046-induced changes in protein phosphorylation (FIG. 5A; FIGS. 14A-D). […] Genistein was evaluated under identical treatment conditions for comparison. […]

MKK4 = target: T1, MKK4 (Homo sapiens, UniProt P45985); details: low nanomolar concentrations; cited from earlier work
T1 sequence (P45985 1-399): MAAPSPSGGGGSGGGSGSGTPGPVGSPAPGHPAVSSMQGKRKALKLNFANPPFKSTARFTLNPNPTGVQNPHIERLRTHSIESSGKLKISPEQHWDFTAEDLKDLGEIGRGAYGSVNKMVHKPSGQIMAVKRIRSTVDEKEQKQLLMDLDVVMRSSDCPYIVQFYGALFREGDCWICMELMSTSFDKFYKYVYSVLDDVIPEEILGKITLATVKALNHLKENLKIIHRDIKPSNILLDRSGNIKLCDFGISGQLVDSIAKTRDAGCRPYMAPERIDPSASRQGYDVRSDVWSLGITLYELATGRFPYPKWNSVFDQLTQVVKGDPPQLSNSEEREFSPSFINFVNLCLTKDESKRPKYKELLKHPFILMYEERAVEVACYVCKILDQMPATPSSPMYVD

- binding to protein array ([2]; 0.5 and 10 μM): lack of binding
Structure (SMILES): O=C(CCCC[C@@H]1SC[C@@H]2NC(=O)N[C@@H]21)NCCOCCOCCOCCOc1ccc2c(c1)OCC(c1ccc(F)cc1)C2=O (stereo partly shown) [KBU2046-biotin]
- biological activity in single cell motility (PC3-M cells [1]): biologically active
- initial hit rate on protein array ([2]; 0.5 and 10 μM, before competition criterion): 0.03%
- labeling of intact cells (PC3-M cells [3]): labels cells in a manner that can be competed off

Structure (SMILES): O=c1c(-c2ccc(O)cc2)coc2cc(O)cc(O)c12 [genistein, 4′,5,7-trihydroxyisoflavone]
- changes in protein phosphorylation [4]: widespread changes in protein phosphorylation
- inhibition of MKK4 kinase activity (literature) (MKK4): inhibited the kinase activity

Structure (SMILES): CN[C@@H]1C[C@H]2O[C@@](C)([C@@H]1OC)n1c3ccccc3c3c4c(c5c6ccccc6n2c5c31)C(=O)NC4 [staurosporine, reference compound]
- number of proteins bound at >/=10 fold above background ([2]; positive control): 214 proteins
